The nature of data set [1]: in vivo. Particulars: male, Sprague-Dawley, rat, in vivo, inhaled or intranasal, 2.5 mg/kg. How it is done: (§1) Male SD (Sprague-Dawley) rats (280-300 g) were provided to adapt to each separate cage of the animal facility at least 2 days. At this point, foods and water were freely allowed to the rats, which were exposed to light for 12 hours and kept in dark for another 12 hours. One day before the testing, the rats were provided with water only and kept from eating food.
(§2) The peptides of the Preparation Examples or the Example, and mannitol(^3H-Mannitol, 14.2 Ci/mmol, PerkinElmer) were used to prepare the individual preparation groups given as follows:
(§3) The first preparation group was a control group and prepared as an aqueous solution of 5% (w/v) dextrose containing mannitol without a peptide.
(§4) The second preparation group was prepared as an aqueous solution of 5% (w/v) dextrose containing mannitol and the FCIGRL peptide of the Preparation Example 1.
(§5) The third preparation group was prepared as an aqueous solution of 5% (w/v) dextrose containing mannitol and the Ac-FCIGRL peptide of the Preparation Example 2.
(§6) The fourth preparation group was prepared as an aqueous solution of 5% (w/v) dextrose containing mannitol and the FCIGRL-NH2 peptide of the Example 1.
(§7) The male SD rats provided above 1. were divided into four groups, each having five male SD rats. The first to fourth preparation groups were nasally administered into the first to fourth rat groups, respectively.
(§8) At this point, the dosage of each solution was 70 μl per rat, where the dosages of mannitol and each peptide were 20 μCi/kg and 2.5 mg/kg, respectively.
(§9) Prior to the nasal administration, each rat was anesthetized to implant a cannula into the jugular vein of it. The solution was taken into the nostrils of the rat through a micropipette (Eppendorf) with caution as not to affect the nasal mucous membrane, while the rat was lying on the back to rest its head sideways against the wall.
(§10) 250 μl of blood was collected from each rat in 10, 20, 40, 60, 120, 180, 240 and 360 minutes after administration of the solution through jugular vein cannulation. The blood was subjected to centrifugal separation at 13,000 rpm for 10 minutes to obtain 100 μl of plasma. A scintillation cocktail solution was added to the plasma. Then, an LS6500 Universal counter (Beckman Coulter, Brea, Calif., USA) was used to measure the radiation quantity for the quantitative analysis of mannitol.
(§11) The mannitol concentration in blood from the rats of each group is graphed in FIG. 1. Table 1 presents the pharmacokinetic parameters, that is, AUC, Cmax, Tmax, and T1/2 of mannitol.

The subject of data set [2] is nasal mucous membrane. Kind of data set: Nasal administration of 3H-mannitol with or without peptide to rats; mannitol concentration in blood (mucous membrane permeability). Particulars: nasal, rats, peptide 2.5 mg/kg. How it is done:
as §1, §2, §3, §4, §5, §6, §7, §8, §9, §10, §11

For data set [3] the following is noted: buffer solution that is slightly acid (pH 5.0), neutral, and basic; cited from earlier work.
The conditions of data set [4]: preparation group containing mannitol and the peptide, for nasal administration.

Where no end group is shown, it is not given here.

For the compound `OC[C@@H](O)[C@@H](O)[C@H](O)[C@H](O)CO` [Mannitol, mannitol], in data set [1], the area under the curve AUC(0-t) was 0.101 ng·h/mL, the Cmax was determined as 0.0306 ± 0.00602 ng/mL, the Tmax is 0.583 h and the half-life turned out to be 3.59 ± 0.0515 h.

For Ac-FCIGRL [Ac-FCIGRL], in data set [2], the “difference in the blood mannitol concentration versus mannitol alone” value is reported as “no significant difference”.

With “H-FCIGRL-OH [FCIGRL, Phe-Cys-Ile-Gly-Arg-Leu]”, the “difference in the blood mannitol concentration versus mannitol alone” value in data set [2] is reported as “no significant difference”. Further, in data set [3], the “maintenance of the intact form of peptide over time” value was “cannot maintain the intact form of peptide over time”.

Consider FCIGRL-NH2 [FCIGRL-NH2], for which, in data set [2] (p<0.01), the “AUC0-360min of mannitol relative to the administration group of mannitol alone” value is listed as 3.63 times and the “Cmax of mannitol relative to the administration group of mannitol alone” value worked out at 2.68 times.

With Ac-FCIGRL-NH2 [Ac-FCIGRL-NH2], the “solubility of the peptide” value in data set [4] is “such a low solubility of the peptide as to make nasal administration of the peptide impossible”.

The record behind these values is US10307458B2, “Peptide as absorption enhancer and composition containing same” (SOONCHUNHYANG UNIVERSITY INDUSTRY ACADEMY COOPERATION …, priority 2014, dated 2019).
